From US20060074243A1, “Hydroxamic acid and amide compounds and their use as protease inhibitors” (Pharmacia Corporation, priority 2002, published 2006) come the findings set out here.

The target in one assay is T1, Human recombinant MMP-2 (Homo sapiens, UniProt P08253).
T1 construct: made in house; host or cells: MMP-2-transfected p2AHT2 cells
T1 sequence (P08253 110-660): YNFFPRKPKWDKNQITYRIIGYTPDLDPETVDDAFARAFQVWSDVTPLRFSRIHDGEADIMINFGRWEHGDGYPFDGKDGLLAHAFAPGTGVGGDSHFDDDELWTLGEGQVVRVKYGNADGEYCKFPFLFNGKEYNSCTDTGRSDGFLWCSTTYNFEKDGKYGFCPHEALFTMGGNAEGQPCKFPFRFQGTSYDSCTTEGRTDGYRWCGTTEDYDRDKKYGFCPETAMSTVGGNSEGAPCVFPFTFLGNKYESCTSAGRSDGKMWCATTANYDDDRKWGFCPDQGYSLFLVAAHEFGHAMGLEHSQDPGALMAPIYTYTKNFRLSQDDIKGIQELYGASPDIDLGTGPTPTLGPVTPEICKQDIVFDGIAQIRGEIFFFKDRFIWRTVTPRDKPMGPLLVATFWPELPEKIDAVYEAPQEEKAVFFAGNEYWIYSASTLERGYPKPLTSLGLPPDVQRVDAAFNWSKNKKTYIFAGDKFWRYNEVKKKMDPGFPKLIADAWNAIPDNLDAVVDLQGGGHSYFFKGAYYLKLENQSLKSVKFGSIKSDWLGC
In words: In vitro MMP inhibition analysis (fluorogenic peptide substrate cleavage), Ki. It counts as biochemical. Conditions: Table 2. Summed up:
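Human recombinant MMP-2 from transfected p2AHT2 cells was activated with APMA or trypsin and incubated 1 h at room temperature with compounds and 4 μM MCA-RPLGL(Dpa)ARER-NH2. Buffer was pH 7.5 Tris/NaCl/CaCl2, and fluorescence was read at ex 330/em 420 nm. Ki was fitted by Morrison's equation without substrate correction.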

The next assay deals with T2, Human recombinant MMP-14 (Homo sapiens, UniProt P50281).
T2 construct: The catalytic domain enzyme was expressed in E. coli inclusion bodies, solubilized in urea; made in house
The description is as above. It counts as biochemical. Particulars: Table 2. In a few lines: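 Refolded catalytic domain of MMP-14 expressed in E. coli, activated with APMA or trypsin, incubated 1 h at room temperature with 4 μM MCA-peptide substrate in Tris buffer pH 7.5 with CaCl2. Cleavage rate followed by fluorescence (ex 330/em 420 nm). Ki from Morrison-equation fit; substrate at or below Km, so no substrate correction.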

Usually Ki stands for a measure of affinity in units of concentration, obtained from inhibition or displacement.

For the compound `O=C(NO)C1(S(=O)(=O)c2ccc(-c3cnc(OCC4CC4)cn3)cc2)CCOCC1` [Example 168], the inhibition constant Ki came out at 0.08 nM at Human recombinant MMP-2 and 46.2 nM at Human recombinant MMP-14.

As for `O=C(NO)C1(S(=O)(=O)c2ccc(-c3cnc(OCCCC(F)(F)F)cn3)cc2)CCOCC1` [Example 88], the Ki on Human recombinant MMP-2 amounted to 0.15 nM; on Human recombinant MMP-14, 539 nM.

In the case of `O=C(NO)C1(S(=O)(=O)c2ccc(-c3ccc(OC(F)(F)F)cc3)cc2)CCOCC1` [Example 80], the Ki is 0.098 nM on Human recombinant MMP-2 and 89.1 nM at Human recombinant MMP-14.

On to `O=C(NO)C1(S(=O)(=O)c2ccc(-c3ccccc3CO)cc2)CCOCC1` [Example 197], for which the Ki is 6200 nM at Human recombinant MMP-2 and greater than 10000 nM at Human recombinant MMP-14.

On to `O=C(NO)C1(S(=O)(=O)c2ccc(-c3ccc(OCC(F)(F)C(F)(F)F)cc3)cc2)CCOCC1` [Example 95], for which the Ki on Human recombinant MMP-2 was found to be 0.17 nM; at Human recombinant MMP-14, 463 nM.

As to `CC(C)CCOc1ccc(-c2ccc(S(=O)(=O)C3(C(=O)NO)CCOCC3)cc2)cc1C(F)(F)F` [Example 86], the results for the Ki at Human recombinant MMP-2 and at Human recombinant MMP-14 were 85.7 nM and greater than 10000 nM, respectively.

For `O=C(N1CCOCC1)N1CCC(C(=O)NO)(S(=O)(=O)c2ccc(-c3ccc(CCC(F)(F)C(F)(F)F)cc3)cc2)CC1` [Example 171], the figures for the Ki on Human recombinant MMP-2 and at Human recombinant MMP-14 were 0.24 nM and 633 nM, respectively.

In the case of `O=C1c2ccccc2C(=O)N1CCCOc1cccc(-c2ccc(S(=O)(=O)C3(C(=O)NO)CCOCC3)cc2)c1` [Example 196], the Ki is 947 nM at Human recombinant MMP-2 and greater than 10000 nM on Human recombinant MMP-14.

Take `COc1ccc(C(=O)c2cnc(-c3ccc(S(=O)(=O)C4(C(=O)NO)CCOCC4)cc3)cn2)cc1` [Example 179]: the Ki came to 2.99 nM at Human recombinant MMP-2 and 218 nM at Human recombinant MMP-14.

For the compound `CCCCc1cnc(-c2ccc(S(=O)(=O)C3(C(=O)NO)CCN(CCOC)CC3)cc2)cn1` [Example 206], the Ki on Human recombinant MMP-2 was 2.98 nM; on Human recombinant MMP-14, greater than 10000 nM.

For the compound `CCCCc1ccc(-c2ccc(S(=O)(=O)C3(C(=O)NO)CCOCC3)cc2)cc1` [Example 91], the Ki at Human recombinant MMP-2 came out at 0.374 nM; on Human recombinant MMP-14 it was 321 nM.

As to `O=C(NO)C1(S(=O)(=O)c2ccc(-c3cnc(OCCC4CCCC4)cn3)cc2)CCOCC1` [Example 180], the results for the Ki on Human recombinant MMP-2 and on Human recombinant MMP-14 were 0.295 nM and 1140 nM, respectively.

`COC(=O)c1ccc2cc(-c3ccc(S(=O)(=O)C4(C(=O)NO)CCOCC4)cc3)ccc2c1` [Example 181]: the inhibition constant Ki at Human recombinant MMP-2 came to 0.272 nM; on Human recombinant MMP-14, 623 nM.

Regarding `O=C(NO)C1(S(=O)(=O)c2ccc(-c3nc4ccccc4o3)cc2)CCOCC1` [Example 193], the values for the Ki on Human recombinant MMP-2 and on Human recombinant MMP-14 were 1.34 nM and 96.7 nM, respectively.

In the case of `O=C(c1ccc2cc(-c3ccc(S(=O)(=O)C4(C(=O)NO)CCOCC4)cc3)ccc2c1)N1CCCCC1` [Example 223], the Ki is 11 nM at Human recombinant MMP-2 and greater than 10000 nM on Human recombinant MMP-14.

Regarding `COCCOC1CCC(C(=O)NO)(S(=O)(=O)c2ccc(-c3cnc(CCCC(F)(F)F)cn3)cc2)CC1` (stereo not drawn) [Example 210], the values for the Ki on Human recombinant MMP-2 and on Human recombinant MMP-14 were 1.01 nM and 3430 nM, respectively.

As to `CC(C)CC#Cc1cnc(-c2ccc(S(=O)(=O)C3(C(=O)NO)CCOCC3)cc2)cn1` [Example 166], the Ki stood at 0.4 nM on Human recombinant MMP-2 and 264 nM on Human recombinant MMP-14.

Turning to `COCCN1CCC(C(=O)NO)(S(=O)(=O)c2ccc(-c3cnc(OCCC4CCCC4)cn3)cc2)CC1` [Example 200], the inhibition constant Ki stood at 0.404 nM at Human recombinant MMP-2 and 942 nM on Human recombinant MMP-14.

`O=C(NO)C1(S(=O)(=O)c2ccc(-c3ccc4c(c3)OCO4)cc2)CCOCC1` [Example 188]: the Ki at Human recombinant MMP-2 came to 0.13 nM; on Human recombinant MMP-14, 27.1 nM.

Regarding `CC[C@H](C)NC(=O)c1ccc(-c2ccc(S(=O)(=O)C3(C(=O)NO)CCOCC3)cc2)nc1` [Example 208], the results for the Ki on Human recombinant MMP-2 and at Human recombinant MMP-14 were 10.6 nM and greater than 10000 nM, respectively.

In the case of `CN(C)C(=O)c1ccc2cc(-c3ccc(S(=O)(=O)C4(C(=O)NO)CCOCC4)cc3)ccc2c1` [Example 221], the Ki on Human recombinant MMP-2 came out at 5.61 nM; at Human recombinant MMP-14, 6850 nM.

On to `C#CCN(C)C(=O)c1ccc2cc(-c3ccc(S(=O)(=O)C4(C(=O)NO)CCOCC4)cc3)ccc2c1` [Example 216], for which the Ki on Human recombinant MMP-2 stood at 2.51 nM; at Human recombinant MMP-14, 2550 nM.

Take `COCCOC1CCC(C(=O)NO)(S(=O)(=O)c2ccc(-c3ccc(CCCC(F)(F)F)cn3)cc2)CC1` (stereo not drawn) [Example 209]: the figures for the Ki at Human recombinant MMP-2 and at Human recombinant MMP-14 were 0.081 nM and 272 nM, respectively.

For `COC/C(Cl)=C/c1cnc(-c2ccc(S(=O)(=O)C3(C(=O)NO)CCOCC3)cc2)cn1` [Example 165], the Ki on Human recombinant MMP-2 was 2.46 nM; on Human recombinant MMP-14, 1110 nM.

Regarding `Cc1ccc(-c2ccc(S(=O)(=O)C3(C(=O)NO)CCOCC3)cc2)nc1` [Example 81], the Ki came out at 0.106 nM on Human recombinant MMP-2 and 22.6 nM on Human recombinant MMP-14.

`CO[C@H]1CC[C@](C(=O)NO)(S(=O)(=O)c2ccc(-c3cnc(CCC(F)(F)C(F)(F)F)cn3)cc2)CC1` [Example 183]: the Ki on Human recombinant MMP-2 came out at 0.35 nM; on Human recombinant MMP-14 it was 798 nM.

With `O=C(NO)C1(S(=O)(=O)c2ccc(-c3ccc(OCC(F)(F)C(F)(F)F)c(C(F)(F)F)c3)cc2)CCOCC1` [Example 90], the Ki at Human recombinant MMP-2 worked out at 28.3 nM; on Human recombinant MMP-14, 2100 nM.

As to `CCCCNC(=O)c1cnc(-c2ccc(S(=O)(=O)C3(C(=O)NO)CCOCC3)cc2)cn1` [Example 184], the figures for the inhibition constant Ki at Human recombinant MMP-2 and at Human recombinant MMP-14 were 0.8 nM and 1290 nM, respectively.

As for `O=C(c1ccc2cc(-c3ccc(S(=O)(=O)C4(C(=O)NO)CCOCC4)cc3)ccc2c1)N1CCOCC1` [Example 222], the Ki was 7.8 nM on Human recombinant MMP-2 and greater than 10000 nM at Human recombinant MMP-14.

For `CCN1CCC(C(=O)NO)(S(=O)(=O)c2ccc(-c3cnc(CCCC(F)(F)F)cn3)cc2)CC1` [Example 217], the Ki at Human recombinant MMP-2 was 9.06 nM; at Human recombinant MMP-14, greater than 10000 nM.

On to `O=C(NC1CCCC1)c1ccc(-c2ccc(S(=O)(=O)C3(C(=O)NO)CCOCC3)cc2)nc1` [Example 198], for which the Ki is 2.16 nM on Human recombinant MMP-2 and 5120 nM on Human recombinant MMP-14.

`O=C(NCC1CCCCC1)c1cnc(-c2ccc(S(=O)(=O)C3(C(=O)NO)CCOCC3)cc2)cn1` [Example 190]: the Ki on Human recombinant MMP-2 was found to be 1.7 nM; on Human recombinant MMP-14 it was 4700 nM.

With `COCCOc1ccc(-c2ccc(S(=O)(=O)C3(C(=O)NO)CCOCC3)cc2)cc1` [Example 70], the Ki on Human recombinant MMP-2 is 0.177 nM; on Human recombinant MMP-14, 299 nM.

On to `COCCN1CCC(C(=O)NO)(S(=O)(=O)c2ccc(-c3cnc(CCC(F)(F)F)cn3)cc2)CC1` [Example 214], for which the figures for the Ki on Human recombinant MMP-2 and at Human recombinant MMP-14 were 2.09 nM and 6980 nM, respectively.

As for `CC(C)c1ccc(-c2ccc(S(=O)(=O)C3(C(=O)NO)CCOCC3)cc2)cc1` [Example 97], the inhibition constant Ki came to 1.14 nM on Human recombinant MMP-2 and 109 nM at Human recombinant MMP-14.

Turning to `O=C(NCC(F)(F)C(F)(F)F)c1cnc(-c2ccc(S(=O)(=O)C3(C(=O)NO)CCOCC3)cc2)cn1` [Example 192], the Ki at Human recombinant MMP-2 amounted to 0.89 nM; on Human recombinant MMP-14, 5920 nM.

Regarding `O=C(N1CCCCC1)N1CCC(C(=O)NO)(S(=O)(=O)c2ccc(-c3ccc(CCC(F)(F)C(F)(F)F)cc3)cc2)CC1` [Example 175], the Ki is 0.42 nM on Human recombinant MMP-2 and greater than 10000 nM on Human recombinant MMP-14.

In the case of `O=C(NO)C1(S(=O)(=O)c2ccc(-c3ccc(CCC(F)(F)C(F)(F)F)cn3)cc2)CCOCC1` [Example 201], the Ki on Human recombinant MMP-2 is 0.045 nM; at Human recombinant MMP-14, 221 nM.

Turning to `CC(C)CCNC(=O)c1cnc(-c2ccc(S(=O)(=O)C3(C(=O)NO)CCOCC3)cc2)cn1` [Example 185], the Ki on Human recombinant MMP-2 was 0.91 nM; at Human recombinant MMP-14, 2050 nM.
